From patent US20030165458A1, “Diagnosis, prevention, amelioration and/or treatment of disturbed immune function induced by disturbed lipid metabolism” (priority 2000, published 2003)

Key:
[1] = test system: Complement Lipid Pathway (CliP); test: MBL in-vitro assay: MBL-dependent complement activation in human serum, hemolysis of heterologous chicken erythrocytes; assay type: biochemical; settings: results summarized in FIG. 9
Procedure: Experimental procedure: Chylomicrons were isolated from human serum by ultra centrifugation and purified by column chromatography. The purified chylomicron fractions were added to MBL-positive serum (from healthy human subjects) and MBL-negative serum (from MBL-deficient human subjects) and purified heterologous chicken erythrocytes were added. Complement activation was allowed to occur at 37° C. for 45 min. after which, the extend of hemolysis was evaluated by spectrophotometrical determination of hemoglobin levels in serum supernatants.
Using the MBL in-vitro assay, we identified, as an example, the components from olive oil and soy oil inducing Complement Lipid Pathway (CliP)-activation.

[2] = Standardized oral fat load with and without vitamin A in healthy volunteers; assay type: in vivo, human
Procedure: Experimental procedure: Fasting venous blood was drawn and Sudan Black staining as described in example 2 was carried out (left panel of FIG. 7). In the right panel of FIG. 7, venous blood of the same healthy volunteer was drawn 4 hours after administration of a standardized oral fat load. In the oral RP-fat loading test, cream is used as fat source; this is a 40% (w/v) fat emulsion with a P/S ratio of 0.06, which contains 0.001% (w/v) cholesterol and 2.8% (w/v) carbohydrates. After an overnight fast of 12 h, the subjects ingest the fresh cream, to which 120.000 U of aqueous RP (Retinyl palmitate =vitamin A) had been added 18 h before the test, in a dose of 50 g per m^2 body surface. After the ingestion of the fat load, subjects were only allowed to drink water or tea during the following 24 h. Peripheral blood samples were obtained in sodium EDTA (2 mg/ml) before (T=0), at hourly intervals up to 10 h and at 12 and 24 h after the meal. Tubes were protected against light by aluminum foil and centrifuged immediately for 15 min at 800×g at 4° C. […]
Experimental procedure: Standardized oral fat loading tests (oral RP fat loading test) were performed in volunteers and patients and plasma C3 levels were determined nephelometrically at regular intervals. Complement component 3 was measured by nephelometry (Dade Behring Nephelometry type II). […]

CCCCCCCCCCCCCCCC(=O)OC/C=C(C)/C=C/C=C(C)/C=C/C1=C(C)CCCC1(C)C [vitamin A, Retinyl palmitate]
CLiP-induction [1]: strong CLiP-induction | postprandial plasma C3 increase ([2]; 20 healthy volunteers, oral fat load with vs without vitamin A, after 2 h (FIG. 11A)): significantly higher | plasma triglyceride increase 2 h after acute oral fat load ([2]; healthy volunteers, fat load with vs without vitamin A (FIG. 11B)): reduction
